Experimental data published in ChEMBL document CHEMBL1125974, “Synthesis of (+/)1-Aza-carbocyclic-pyrimidine-2,3-dideoxynucleoside analogues as potential anti-HIV agents” (Bioorg Med Chem Lett, 1991).

What follows are compounds tested on MT4 (assay: Tested for inhibitory activity against HIV in whole cell assay (MT-4, RF strain of HIV-1) at a 100 ug/ ml); Inactive and Not toxic). Settings: Homo sapiens.
Format: functional, cell-based

Question: For Nc1ccn(N2CCC(CO)C2)c(=O)n1 (stereo not drawn), which Activity is on record?
Answer: Non-toxic

Question: With Cc1cn(N2CCC(CO)C2)c(=O)[nH]c1=O (stereo not drawn) as the compound, how does the Activity read?
Answer: Non-toxic

Question: For O=c1ccn(N2CCC(CO)C2)c(=O)[nH]1 (stereo not drawn), which Activity is on record?
Answer: Non-toxic
